The numbers were not newly measured in US10585101B2, “Prostatic liquid biopsy for the detection of prostate cancer and benign prostatic hyperplasia” (WAVESENSE, INC., priority 2016, dated 2020), which cites them from elsewhere.

For the data set, the system named is prostate cancer. As to conditions: long term use.

On to `CC(C)(C)NC(=O)[C@H]1CC[C@H]2[C@@H]3CC[C@H]4NC(=O)C=C[C@]4(C)[C@H]3CC[C@]12C` [finasteride, Finasteride], for which the “risk of low-grade prostate cancer” value was “decreased the risk of low-grade prostate cancer”.
